Data on 15 compounds can be found in patent publication US9469631B2 (Boehringer Ingelheim International GmbH, priority 2012, dated 2016).

Each structure is given as a SMILES string.

mutant form of the human GPR119 receptor, sequence (Q8TDV5 other isoform, or with tags, fused parts or gaps T327A/S329A): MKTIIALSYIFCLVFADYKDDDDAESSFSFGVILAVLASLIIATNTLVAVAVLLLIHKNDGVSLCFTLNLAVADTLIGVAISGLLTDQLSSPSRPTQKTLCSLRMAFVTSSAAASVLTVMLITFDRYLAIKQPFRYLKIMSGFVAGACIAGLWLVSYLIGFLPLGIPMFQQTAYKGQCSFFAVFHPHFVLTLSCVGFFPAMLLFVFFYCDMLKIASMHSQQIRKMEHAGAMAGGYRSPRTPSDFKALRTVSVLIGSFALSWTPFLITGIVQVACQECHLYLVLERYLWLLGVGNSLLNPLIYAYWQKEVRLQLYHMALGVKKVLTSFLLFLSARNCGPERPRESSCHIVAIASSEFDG
human GPR119, sequence (Q8TDV5 whole entry): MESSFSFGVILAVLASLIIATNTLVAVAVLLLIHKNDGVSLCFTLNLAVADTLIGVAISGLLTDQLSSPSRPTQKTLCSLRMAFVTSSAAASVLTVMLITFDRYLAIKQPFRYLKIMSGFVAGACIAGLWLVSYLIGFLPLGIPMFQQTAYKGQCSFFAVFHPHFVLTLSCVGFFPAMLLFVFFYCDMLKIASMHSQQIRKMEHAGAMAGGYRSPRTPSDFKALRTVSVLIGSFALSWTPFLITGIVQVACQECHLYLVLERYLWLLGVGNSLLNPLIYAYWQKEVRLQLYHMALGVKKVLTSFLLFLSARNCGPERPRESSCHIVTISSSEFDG

The first assay addresses human GPR119 (Homo sapiens (Human), UniProt Q8TDV5). The assay can be described thus: AlphaScreen cAMP assay in MIN6 cells stably transfected with human GPR119. Particulars: Min-6/hGPR119 cells, 45 min incubation at room temperature. The format is cell-based. The method in brief: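 MIN6 cells stably expressing human GPR119 were seeded at 10000 cells/well for 24 h. Compounds were then applied in pH 7.4 buffer with 0.5 mM IBMX, 0.1% BSA and 1% DMSO for 45 min at about 20 °C. Intracellular cAMP was measured by AlphaScreen.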
`O=C(Oc1ccc(F)cc1)N1CCC(N(C(=O)c2ccc(-c3cnco3)cc2)C2CC2)CC1` [Example 119, 4-[Cyclopropyl-(4-oxazol-5-yl-benzoyl)-amino]-piperidine-1-carboxylic acid 4-fluoro-phenyl ester] registered an EC50 of 0.089 µM.

For the compound `COc1ccc(OC(=O)N2CCC(N(C(=O)c3ccc(-c4cnco4)cc3)C3CC3)CC2)cc1` [Example 120, 4-[Cyclopropyl-(4-oxazol-5-yl-benzoyl)-amino]-piperidine-1-carboxylic acid 4-methoxy-phenyl ester], the EC50 is 0.071 µM.

The compound `CC(C)(C)COC(=O)N1CCC(N(C(=O)c2ccc(-c3cnco3)cc2)C2CC2)CC1` [Example 121, 4-[Cyclopropyl-(4-oxazol-5-yl-benzoyl)-amino]-piperidine-1-carboxylic acid 2,2-dimethyl-propyl ester] came in with a 50% effective concentration (EC50) of 0.045 µM.

In turn, `CCCOC(=O)N1CCC(N(C(=O)c2ccc(-c3cnco3)cc2)C2CC2)CC1` [Example 123, 4-[Cyclopropyl-(4-oxazol-5-yl-benzoyl)-amino]-piperidine-1-carboxylic acid propyl ester] gave an EC50 of 0.08 µM.

On to `O=C(Oc1ccccc1)N1CCC(N(C(=O)c2ccc(-c3cnco3)cc2)C2CC2)CC1` [Example 124, 4-[Cyclopropyl-(4-oxazol-5-yl-benzoyl)-amino]-piperidine-1-carboxylic acid phenyl ester], for which the EC50 came to 0.088 µM.

The compound `CC(C)COC(=O)N1CCC(N(C(=O)c2ccc(-c3cnco3)cc2)C2CC2)CC1` [Example 125, 4-[Cyclopropyl-(4-oxazol-5-yl-benzoyl)-amino]-piperidine-1-carboxylic acid isobutyl ester] showed an EC50 of 0.045 µM.

Take `O=C(OCc1ccccc1)N1CCC(N(C(=O)c2ccc(-c3cnco3)cc2)C2CC2)CC1` [Example 126, 4-[Cyclopropyl-(4-oxazol-5-yl-benzoyl)-amino]-piperidine-1-carboxylic acid benzyl ester]: the response was half-maximal at 0.128 µM (EC50).

On to `C=CCOC(=O)N1CCC(N(C(=O)c2ccc(-c3cnco3)cc2)C2CC2)CC1` [Example 127, 4-[Cyclopropyl-(4-oxazol-5-yl-benzoyl)-amino]-piperidine-1-carboxylic acid allyl ester], for which a half-maximal effect (EC50) was put at 0.102 µM.

`O=C(OC1CCCC1)N1CCC(N(C(=O)c2ccc(-c3cnco3)cc2)C2CC2)CC1` [Example 128, 4-[Cyclopropyl-(4-oxazol-5-yl-benzoyl)-amino]-piperidine-1-carboxylic acid cyclopentyl ester] displayed an EC50 of 0.034 µM.

In turn, `CC(C)OC(=O)N1CCC(N(C(=O)c2ccc(-c3ccc(C(N)=O)cc3)cc2)C2CC2)CC1` [Example 129, 4-[(4′-Carbamoyl-biphenyl-4-carbonyl)-cyclopropyl-amino]-piperidine-1-carboxylic acid isopropyl ester] displayed an EC50 of 0.113 µM.

The compound `CC(C)(OC(=O)N1CCC(N(C(=O)c2ccc(-c3cnco3)cc2)C2CC2)CC1)C(F)(F)F` [Example 130, 4-[Cyclopropyl-(4-oxazol-5-yl-benzoyl)-amino]-piperidine-1-carboxylic acid 2,2,2-trifluoro-1,1-dimethyl-ethyl ester] showed an EC50 of 0.01 µM.

The next assay concerns the target mutant form of the human GPR119 receptor (Homo sapiens (Human), UniProt Q8TDV5, S329A/T327A). The assay can be described thus: LANCE cAMP-384 assay in HEK293 cells stably expressing a mutant form of human GPR119. The format is cell-based. As to conditions: 20 min at 37° C.
Compound `CC(C)OC(=O)N1CC[C@H](N(C(=O)c2ccc(-n3cncn3)c(F)c2)C2CC2)[C@H](F)C1` (single isomer, unassigned) [Example 48] had an EC50 of 0.042 µM.

Compound `CC(C)OC(=O)N1CC[C@@H](N(C(=O)c2ccc(-n3cncn3)c(F)c2)C2CC2)[C@@H](F)C1` (single isomer, unassigned) [Example 50] returned an EC50 of 1.02 µM.

In the case of `CC(C)OC(=O)N1CCC(N(C(=O)c2ccc(-n3cncn3)c(F)c2)C2CC2)CC1` [Example 49, 4-[Cyclopropyl-(3-fluoro-4-[1,2,4]triazol-1-yl-benzoyl)-amino]-piperidine-1-carboxylic acid isopropyl ester], a half-maximal response (EC50) required 0.338 µM.

`Cc1nccn1-c1ccc(C(=O)N(C2CC2)C2CCN(C(=O)OC(C)C)CC2)cc1` [Example 51, 4-{Cyclopropyl-[4-(2-methyl-imidazol-1-yl)-benzoyl]-amino}-piperidine-1-carboxylic acid isopropyl ester] registered an EC50 of 1.58 µM.
